Measurements reported in patent publication US20170071975A1, “COMPOSITIONS AND METHODS FOR TREATING DEPRESSIVE DISORDERS” (Steerwasher, LLC, priority 2014, published 2017).

Experiments:
[1] = system: patients with treatment-resistant depression; assay: Same crossover trial; Quick Inventory of Depressive Symptoms Self Report (QIDS-SR) scale; assay type: in vivo, human; conditions: Table 4
Description: (§1) Primary endpoint was the change on the 21-point Hamilton Depression Rating Scale (HRDS).
(§2) This study was designed as a randomized, placebo-controlled crossover pilot clinical trial. […] The order of the session was randomly assigned by a random number generator. Other than the gas mixture administered, both sessions were indistinguishable from each other in setting, setup, and monitoring.
(§3) The gas mix was administered via a standard anesthesia facemask through tubing connected to an anesthesia machine. A small sample connector line was inserted into the facemask allowing the measurement of inhaled and exhaled gas concentrations. Total gas flow was between 4-8 L/min. Patients were monitored during and after the treatment according to American Society of Anesthesiologists standard which includes continuous 3-lead ECG, pulsoximetry, non-invasive blood pressure and end-tidal CO2 under the supervision of an attending-level anesthesiologists. After the one-hour treatment session, patients were transferred and monitored for 2 hours. A study team physician determined if the patients met criteria for discharge before patients were discharged.
(§4) Outcomes were assessed at six time points for each patient (three per session; two sessions): within each session at baseline, 2 hours, and 24 hours after treatment. Primary study endpoint was the change on the 21-point Hamilton Depression Rating Scale (HDRS). Secondary endpoints included a change on the Quick Inventory of Depressive Symptoms Self Report (QIDS-SR) scale. At baseline, the Brief Psychiatric Rating Scale (BPRS) was also administered. Psychiatric safety endpoints were assessed via standard scales for psychosis and the Columbia suicide scale. Other safety endpoints included cardiovascular, respiratory and central nervous system adverse events determined by hemodynamic and respiratory monitoring.

[2] = system: patients with treatment-resistant depression; design: species or system human; conditions: in vivo
Description: as §3
as §4, with “monitoring. Nitrous oxide-induced inactivation of vitamin B12 was determined by measurement of plasma total homocysteine before and after treatment.” for “monitoring.”

[3] = system: patients with treatment-resistant depression; assay: Blinded, randomized placebo-controlled crossover trial; 21-point Hamilton Depression Rating Scale (HDRS/HRDS); assay type: in vivo, human
Text: as §1, §2
Patients were recruited from an existing database of treatment-resistant depression patients administered by the Washington University Department of Psychiatry as well as from the “Volunteers for Health” patient pool within the Washington University School of Medicine. […] Patients were instructed not to suspend their standard of care treatment for major depression. Patients were required to maintain a stable medication regiment without changes for 4 weeks prior to initiation of the study and continue on the same dose throughout.
as §3, §4
The primary outcome was analyzed with a mixed effects repeated measures linear model that included three interactions (treatment; time; randomization group) using restricted maximum likelihood estimation.
For the analysis of paired data, such as the levels of HRDS, we used the Wilcoxon signed-rank test. To compare the rates of treatment responses and remissions between the two treatments and using the paired data structure, an exact binomial test was used (and corresponding odds ratios calculated) as the number of discordant pairs was <20. Data are presented as mean±SD or 95% confidence intervals, or as median and interquartile range. Because this is the first in-human patient pilot study, no prior knowledge existed for adequate sample size determination. […] JMP Pro 11.1 and SAS 9.3 (SAS Institute, Cary, N.C.), as well as Prism 6.04 (GraphPad Software, Inc., La Jolla, Calif.) were used for the statistical analysis and graphing.

[4] = 24 hours after treatment, HRDS levels

**Q.** Which results are given for `[N-]=[N+]=O` [nitrous oxide]?
**A.** response on the QIDS scale: change 0 (percent) [1]: 50%; response on the QIDS scale: change of 1 level, first arrow (P00003, presumably worse) (percent) [1]: 10%; response on the QIDS scale: change of 1 level, second arrow (P00004, presumably better) (percent) [1]: 15%; response on the QIDS scale: change of 2 levels, second arrow (P00004, presumably better) (percent) [1]: 25%; Adverse Event: Anxiety ([2]; human, 1 h): 2; Adverse Event: Anxiety (percent) ([2]; human, 1 h): (10%); Adverse Event: Claustrophobia ([2]; human, 1 h): 1 no.; Adverse Event: Claustrophobia (percent) ([2]; human, 1 h): (5%); Adverse Event: Dizziness/Lightheadedness ([2]; human, 1 h): 1 no.; Adverse Event: Dizziness/Lightheadedness (percent) ([2]; human, 1 h): (5%); Adverse Event: Headache ([2]; human, 1 h): 2 no.; Adverse Event: Headache (percent) ([2]; human, 1 h): (10%); Adverse Event: Hypercapnia ([2]; human, 1 h): 0; Adverse Event: Hyperventilation ([2]; human, 1 h): 1 no.; Adverse Event: Hyperventilation (percent) ([2]; human, 1 h): (5%); Adverse Event: Nausea and vomiting ([2]; human, 1 h): 3 no.; Adverse Event: Nausea and vomiting (percent) ([2]; human, 1 h): (15%); Adverse Event: Numbness/Paresthesia ([2]; human, 1 h): 2; Adverse Event: Numbness/Paresthesia (percent) ([2]; human, 1 h): (10%); Adverse Event: Panic Attack ([2]; human, 1 h): 1; Adverse Event: Panic Attack (percent) ([2]; human, 1 h): (5%); Adverse Event: Regurgitation ([2]; human, 1 h): 1 no.; Adverse Event: Regurgitation (percent) ([2]; human, 1 h): (5%); course of adverse events [2]: temporary and resolved shortly after completion; patients in whom the treatment had to be interrupted or discontinued due to adverse events [2]: five; patients who completed the full 60-minute treatment [2]: Fifteen; psychotomimetic side effects (delusion, hallucination) [2]: appeared to be devoid of psychotomimetic side effects; Change in Level of Depression Severity: Better, 1 level (patients) [3, 4]: 7/20; Change in Level of Depression Severity: Better, 1 level (percent) [3, 4]: (35%); Change in Level of Depression Severity: Better, 2 levels (patients) [3, 4]: 3/20; Change in Level of Depression Severity: Better, 2 levels (percent) [3, 4]: (15%); Change in Level of Depression Severity: Better, 3 levels (patients) [3, 4]: 3/20; Change in Level of Depression Severity: Better, 3 levels (percent) [3, 4]: (15%); Change in Level of Depression Severity: Better, 4 levels (patients) [3, 4]: 1/20; Change in Level of Depression Severity: Better, 4 levels (percent) [3, 4]: (5%); Change in Level of Depression Severity: Neutral, 0 (patients) [3, 4]: 6/20; Change in Level of Depression Severity: Neutral, 0 (percent) [3, 4]: (30%); Change in Level of Depression Severity: Worse, 1 level (patients) [3, 4]: 0; mean change in HDRS score ([3]; 24 hours after treatment, full cohort (20 patients), 50% nitrous oxide/50% oxygen for 1 hour, compared to baseline and placebo): −5.5 points; full remission rate (HRDS <7 points) ([3]; 24 hours, 20 patients): 15%; treatment response rate (reduction >50% on the HRDS) ([3]; 24 hours, 20 patients): 20%; mean reduction of HRDS ([3]; 24 hours, first treatment session only (10 patients who received nitrous oxide first)): −8.6 points; patients with at least a 2-level improvement of depression severity on the HRDS ([3]; 24 hours, out of twenty patients, five severity levels): 7 patients; patients with at least a 2-level improvement of depression severity on the HRDS, percent ([3]; 24 hours, twenty patients): 35%; duration of antidepressant effects ([3]; after a single, one-hour treatment with 50% nitrous oxide): at least 24 hours; mean reduction in depressive symptoms on HRDS ([3]; full cohort): 5.5 points; mean reduction in depressive symptoms on HRDS ([3]; ten patients who received the nitrous oxide treatment first): 8.6 points
